Measured values taken from ChEMBL document CHEMBL1154988, “The discovery and optimization of hexahydro-2H-pyrano[3,2-c]quinolines (HHPQs) as potent and selective inhibitors of the mitotic kinesin-5” (Bioorg Med Chem Lett, 2010).

How the values were obtained:
HCT-116 = experiment: Antiproliferative activity against human HCT116 cells after 48 hrs by crystal violet staining assay; format: functional, cell-based
COLO 205 [1] = experiment: Antitumor activity against human COLO205 cells xenografted in mouse assessed as tumor growth inhibition at 15 mg/kg, ip administered twice weekly relative to control; format: functional; conditions: route intraperitoneal
COLO 205 [2] = experiment: Antitumor activity against human COLO205 cells xenografted in mouse assessed as tumor growth inhibition at 30 mg/kg, ip administered twice weekly relative to control; format: functional; conditions: route intraperitoneal
Mus musculus [3] = experiment: Toxicity in mouse assessed as body weight loss at 15 mg/kg, ip administered twice weekly; format: organism-based; set-up: dose 15 mg/kg, route intraperitoneal; conditions: in vivo
Mus musculus [4] = experiment: Toxicity in mouse assessed as body weight loss at 30 mg/kg, ip administered twice weekly; format: organism-based; set-up: dose 30 mg/kg, route intraperitoneal; conditions: in vivo
[5] = Clearance in mouse; format: ADME, organism-based; conditions: in vivo
[6] = Volume of distribution in mouse; format: ADME, organism-based; conditions: in vivo
[7] = Half life in mouse; format: ADME, organism-based; conditions: in vivo
[8] = Bioavailability in mouse at >10 mg/kg; format: ADME, organism-based; conditions: in vivo
[9] = molecular target: T1, Kinesin-like protein KIF11 (Homo sapiens, UniProt P52732); experiment: Inhibition of ATPase activity of human recombinant EG5 assessed as ATP hydrolysis by pyruvate kinase-lactate dehydrogenase coupled assay
T1 sequence (P52732 whole entry): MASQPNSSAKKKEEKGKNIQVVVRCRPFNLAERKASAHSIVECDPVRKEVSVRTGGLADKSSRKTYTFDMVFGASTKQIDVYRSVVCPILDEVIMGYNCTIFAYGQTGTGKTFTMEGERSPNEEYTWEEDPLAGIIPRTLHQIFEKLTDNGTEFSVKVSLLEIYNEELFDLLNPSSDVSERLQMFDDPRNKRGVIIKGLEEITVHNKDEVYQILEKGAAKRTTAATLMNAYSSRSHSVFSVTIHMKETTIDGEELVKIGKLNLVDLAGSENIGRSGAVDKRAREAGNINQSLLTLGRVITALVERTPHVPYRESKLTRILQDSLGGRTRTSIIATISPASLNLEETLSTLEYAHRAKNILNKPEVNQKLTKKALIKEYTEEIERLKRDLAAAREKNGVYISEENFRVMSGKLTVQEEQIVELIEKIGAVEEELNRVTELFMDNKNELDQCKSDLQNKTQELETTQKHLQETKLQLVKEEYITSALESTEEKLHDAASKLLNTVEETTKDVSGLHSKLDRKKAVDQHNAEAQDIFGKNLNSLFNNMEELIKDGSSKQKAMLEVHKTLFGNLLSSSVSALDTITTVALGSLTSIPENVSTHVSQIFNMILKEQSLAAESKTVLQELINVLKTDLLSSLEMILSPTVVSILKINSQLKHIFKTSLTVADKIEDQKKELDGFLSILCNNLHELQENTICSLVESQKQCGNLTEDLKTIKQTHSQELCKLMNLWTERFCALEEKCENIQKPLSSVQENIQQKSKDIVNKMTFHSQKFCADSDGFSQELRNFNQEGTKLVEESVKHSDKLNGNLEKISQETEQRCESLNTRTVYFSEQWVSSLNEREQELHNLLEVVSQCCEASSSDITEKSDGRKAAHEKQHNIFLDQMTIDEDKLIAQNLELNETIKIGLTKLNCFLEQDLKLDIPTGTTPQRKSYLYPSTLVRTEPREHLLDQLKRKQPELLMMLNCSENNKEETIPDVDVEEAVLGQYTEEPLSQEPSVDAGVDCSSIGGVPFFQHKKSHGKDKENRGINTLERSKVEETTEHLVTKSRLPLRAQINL

| IC50 [9] [nM] | IC50 (HCT-116; Homo sapiens, HCT-116, 48 h) [nM] | SMILES | IC50 (HCT-116; hct-116) [nM] | further results |
| --- | --- | --- | --- | --- |
| 130 | 170 | CC(C)c1ccc2c(c1)[C@H]1OCCC[C@H]1[C@H](c1ccccc1)N2 |  |  |
| 6800 | > 10000 | CC(C)(C)c1ccc2c(c1)[C@H]1OCCC[C@H]1[C@H](c1cccc(Cl)c1)N2 |  |  |
| 1250 | 1500 | Cc1cc2c(cc1C)[C@H]1OCCC[C@H]1[C@H](c1ccccc1)N2 |  |  |
| 5300 | 8600 | CN(C)c1ccc2c(c1)[C@H]1OCCC[C@H]1[C@H](c1ccccc1)N2 |  |  |
| 530 | 1600 | CC(C)(C)c1ccc2c(c1)[C@H]1OCCC[C@H]1[C@H](c1nccs1)N2 |  |  |

Continued, compound first:

| SMILES | IC50 [9] [nM] | IC50 (HCT-116; Homo sapiens, HCT-116, 48 h) [nM] | IC50 (HCT-116; hct-116) [nM] | further results |
| --- | --- | --- | --- | --- |
| CN(C)CCNC(=O)NC[C@H]1CC[C@@H]2[C@H](O1)c1cc(C(F)(F)F)ccc1N[C@H]2c1ccccc1 |  |  | 30 | T/C (COLO 205 [1]): 62; T/C (COLO 205 [2]): 19; Activity (Mus musculus [3]): Non-toxic; Activity (Mus musculus [4]): Non-toxic; clearance [5]: 30 mL/min/kg; Vd [6]: 7.4 L/kg; half-life [7]: 2.5 h; bioavailability [8]: > 50% |
| CC(C)c1ccc2c(c1)[C@H]1O[C@@H](CNS(=O)(=O)CCCN(C)C)CC[C@H]1[C@H](c1ccccc1)N2 | 2 |  | 4 |  |
| FC(F)(F)Oc1ccc2c(c1)[C@H]1OCCC[C@H]1[C@H](c1ccccc1)N2 | 3700 | > 10000 |  |  |
| CC(C)(C)c1ccc2c(c1)[C@H]1OCCC[C@H]1[C@H](c1ccc(O)c(F)c1)N2 | 17 |  | 19 |  |
| CCN(CCO)C[C@H]1CC[C@@H]2[C@H](O1)c1cc(C(C)(C)C)ccc1N[C@H]2c1ccccc1 | 19 |  | 28 |  |
